The results in this text go back to article PMC7914897, “Cytotoxic Potential of a-Azepano- and 3-Amino-3,4-SeCo-Triterpenoids” (International Journal of Molecular Sciences, 2021).

In series [1] the test system is A2780 (ovarian carcinoma). As to the kind of experiment: SRB cytotoxicity assay, 72 h. The series is classed as cell-based, human. Particulars: Homo sapiens; A2780, 72 h, cut-off 30 µM; read-out: EC50. The procedure:
(§1) The cytotoxicity of compounds 1–20 was evaluated by means of a colorimetric sulforhodamine B (SRB) assay. For all compounds, the EC50 values were determined for the human tumor cell lines A375 (malignant melanoma), HT29 (colorectal carcinoma), MCF-7 (breast carcinoma), A2780 (ovarian carcinoma), FaDu (hypopharyngeal carcinoma), and NIH 3T3 (non-malignant mouse fibroblasts).
(§2) In short, exponentially growing cells were seeded into 96-well plates on day 0 at the appropriate cell densities to prevent confluence of the cells during the period of experiment. After 24 h, the cells were treated with serial dilutions of the compounds (0–30 µM) for 72 h. The final concentration of DMSO never exceeded 0.5%, which was non-toxic to the cells. After a 72 h treatment, the supernatant medium from the 96-well plates was discarded, and the cells were fixed with 10% TCA. For a thorough fixation, the plates were allowed to rest at 4 °C. After fixation, the cells were washed in a strip washer. The washing was done four times with water using alternate dispensing and aspiration procedures. The plates were then dyed with 100 µL of 0.4% SRB for about 20 min. After dying, the plates were washed with 1% acetic acid to remove the excess of the dye and allowed to air-dry overnight. Tris base solution (200 µL, 10 mM) was added to each well and absorbance was measured at λ = 570 nm (using a 96 well plate reader, Tecan Spectra, Crailsheim, Germany). The percentages of surviving cells relative to untreated controls were determined.

Series [2] has as its system A375 (malignant melanoma). As to the kind of experiment: SRB cytotoxicity assay, 72 h. Particulars: A375, 72 h, cut-off 30 µM, read-out: EC50. Format: cell-based, human. The procedure: as §1, §2
The subject of series [3] is FaDu (hypopharyngeal carcinoma). As to the kind of experiment: SRB cytotoxicity assay, 72 h. Particulars: Homo sapiens, cut-off 30 µM, read-out: EC50. The series is classed as cell-based, human. The procedure:
as §1, §2

The subject of series [4] is HT29 (colorectal carcinoma). As to the kind of experiment: SRB cytotoxicity assay, 72 h. Format: cell-based, human. Particulars: Homo sapiens, HT-29; HT29, 72 h, cut-off 30 µM; read-out: EC50. The procedure:
as §1, §2

For the next series, the system named is MCF-7 (breast carcinoma). As to the kind of experiment: SRB cytotoxicity assay, 72 h. Format: cell-based, human. Particulars: Homo sapiens, MCF7; MCF-7, 72 h, cut-off 30 µM; read-out: EC50. The procedure:
as §1, §2

The subject of series [5] is NIH 3T3 (non-malignant mouse fibroblasts). As to the kind of experiment: SRB cytotoxicity assay, 72 h. Particulars: Mus musculus, NIH3T3; NIH 3T3, 72 h, cut-off 30 µM; read-out: EC50. The series is classed as cell-based. The procedure: as §1, §2
A further series deals with HT29 (Colon cancer). As to the kind of experiment: NCI-60 screen (SRB, 48 h). Particulars: HT29, 1 dose 10 µM.
In series [6] the test system is panel of approximately 60 cancer cell lines. As to the kind of experiment: NCI-60 screen (SRB, 48 h), full panel. Particulars: for Positive Cytostatic Effect (cell lines with percent growth 0 to 50 / total) / number of cancer cell lines the compound was active against / Positive Cytotoxic Effect (cell lines with percent growth < 0 / total): 1 dose 10 µM; for activity at 10 µM: Homo sapiens, 48 h.

The test system of the next series is SR (Leukemia). As to the kind of experiment: NCI-60 screen (SRB, 48 h). Format: cell-based. Particulars: 1 dose 10 µM.
In a further series the test system is COLO 205 (Colon cancer). As to the kind of experiment: NCI-60 screen (SRB, 48 h). Particulars: COLO 205, 1 dose 10 µM.
Another series has as its system CAKI-1 (Renal cancer). As to the kind of experiment: NCI-60 screen (SRB, 48 h). Particulars: CAKI-1, 1 dose 10 µM.

Where two headings read alike, the source gives them in different places.

`CC(=O)[C@@H]1CC[C@]2(CO)CC[C@]3(C)[C@H](CC[C@@H]4[C@@]5(C)CCCNC(C)(C)[C@@H]5CC[C@]43C)[C@@H]12` [Compound 2, azepanomessagenin]: the EC50 is 7.71 ± 0.4 µM in series [1]; 7.82 ± 0.3 µM in [2]; 7.92 µM in series [2] (Homo sapiens, A-375, 72 h); 6.21 ± 1.2 µM in series [3]; 6.32 ± 0.4 µM in series [4]; 5.78 ± 0.7 µM with MCF-7 (breast carcinoma). Further, in series [5], the 50% effective concentration (EC50) stood at 8.03 ± 1.4 µM. The “Growth % of the Most Sensitive Cell Lines” value (shortened to “Growth %”) in the series on HT29 (Colon cancer) is reported as 68.07%. The “Positive Cytostatic Effect (cell lines with percent growth 0 to 50 / total)” value in series [6] is on record as 0/59. In [6], the “number of cancer cell lines the compound was active against” value (from here on “number”) was “did not show antiproliferative activity”. Besides, the activity at 10 µM in series [6] (read-out: Mean Growth, %) is 99.2%; in [6] (read-out: Range of Growth, %) it was 68.1 to 136%.

Take `CC1(C)NCCC[C@]2(C)[C@H]3CC=C4[C@@H]5C[C@@](C)(CO)CC[C@]5(C)CC[C@@]4(C)[C@]3(C)CC[C@@H]12` [Compound 5, azepano-glycyrretol]: the EC50 in series [1] was 6.36 ± 0.6 µM; in [2] (Homo sapiens, A-375, 72 h), 5.69 ± 0.4 µM; in series [3], 4.81 ± 0.9 µM; in series [4] it was 3.97 ± 0.4 µM; in the series on MCF-7 (breast carcinoma) it was 5.68 ± 0.5 µM; in series [5] it was 7.43 ± 1.2 µM. Also, the “Growth %” value in the series on SR (Leukemia) was −1.30%; in the series on COLO 205 (Colon cancer), −4.98%. Further, the “Positive Cytostatic Effect (cell lines with percent growth 0 to 50 / total)” value in [6] is 13/58. Also, the “Positive Cytotoxic Effect (cell lines with percent growth < 0 / total)” value in series [6] is given as 2/58. Also, the “number” value in series [6] is 8 cell lines. In addition, the activity at 10 µM in series [6] (read-out: Mean Growth, %) is 56.2%; in [6] (read-out: Range of Growth, %), -4.98 to 98.9%.

As to `C=C(C)[C@@H]1CC[C@]2(C(=O)NC3CCCCC3)CC[C@]3(C)[C@H](CC[C@@H]4[C@@]5(C)CCCNC(C)(C)[C@@H]5CC[C@]43C)[C@@H]12` [Compound 10], the EC50 in series [1] stood at 2.27 ± 0.4 µM; in series [2] (Homo sapiens, A-375, 72 h), 2.18 ± 0.2 µM; in [3], 2.04 ± 0.1 µM; in series [4], 0.98 ± 0.1 µM; in the series on MCF-7 (breast carcinoma), 1.9 ± 0.1 µM; in series [5] it was 1.5 ± 0.2 µM.

`CC1(C)CC[C@]2(C(=O)NC(CO)Cc3ccccc3)CC[C@]3(C)C(=CC[C@@H]4[C@@]5(C)CCCNC(C)(C)[C@@H]5CC[C@]43C)[C@@H]2C1` (stereo partly shown) [Compound 13]: the 50% effective concentration (EC50) came to 4.15 ± 0.2 µM in [1]; 3.08 ± 0.1 µM in series [2] (Homo sapiens, A-375, 72 h); 3.79 ± 0.3 µM in [3]; 2.07 ± 0.1 µM in series [4]; 2.82 ± 0.3 µM with MCF-7 (breast carcinoma); 3.08 ± 0.3 µM in series [5]. Also, the “Growth %” value in the series on SR (Leukemia) is recorded as −5.95%. The “Positive Cytostatic Effect (cell lines with percent growth 0 to 50 / total)” value in series [6] is listed as 10/60. The “Positive Cytotoxic Effect (cell lines with percent growth < 0 / total)” value in [6] is 1/60. For the same molecule, the “number” value in [6] was found to be 6 cell lines. Also, the activity at 10 µM in [6] (read-out: Mean Growth, %) is 74.9%; in [6] (read-out: Range of Growth, %), -5.95 to 107%.

Consider `CC1(C)NCCC[C@]2(C)[C@H]3CC(=O)[C@H]4[C@@H]5C[C@@](C)(CO)CC[C@]5(C)CC[C@@]4(C)[C@]3(C)CC[C@@H]12` [Compound 17], for which the EC50 was 9.19 ± 0.5 µM in [1]; 6.35 ± 0.5 µM in series [2] (Homo sapiens, A-375, 72 h); 6.36 ± 1.8 µM in series [3]; 5.01 ± 0.8 µM in [4]; 5.55 ± 0.6 µM in the series with MCF-7 (breast carcinoma); 9.87 ± 1.3 µM in series [5]. For the same molecule, the “Growth %” value in the series with CAKI-1 (Renal cancer) was 51.57%. Also, the “Positive Cytostatic Effect (cell lines with percent growth 0 to 50 / total)” value in series [6] is on record as 0/59. In [6], the “Positive Cytotoxic Effect (cell lines with percent growth < 0 / total)” value is 0/59. For the same molecule, the “number” value in series [6] was “complete loss of cytotoxic activity”. The activity at 10 µM is 95.5% in series [6] (read-out: Mean Growth, %) and 51.6 to 118% in series [6] (read-out: Range of Growth, %).

As to `C=C(C)[C@@H]1CC[C@]2(C)[C@H](CC=C3[C@@H]4CC(C)(C)CC[C@]4(CO)CC[C@]32C)[C@@]1(C)CCCN` [Compound 18], the concentration for a half-maximal effect (EC50) is 4 ± 0.2 µM in [1]; 3.38 ± 0.2 µM in series [2] (Homo sapiens, A-375, 72 h); 3.34 ± 0.3 µM in [3]; 1.72 ± 0.2 µM in [4]; 2.65 ± 0.2 µM in the series with MCF-7 (breast carcinoma); 4.02 ± 0.7 µM in series [5].
